Experimental data from paper PMC2721901 (Molecular cell, 2009).

Experiments:
Type in all cases: biochemical
[1] = molecular target: T1, ISW2 (Saccharomyces cerevisiae, UniProt Q08773); assay: competitive inhibitor assay against ATP; conditions: competitive with ATP at active site
[2] = molecular target: T1, ISW2; assay: nucleosome mobilization, native gel shift; conditions: 70N0 nucleosomes, 90 or 800 µM ATP, 5 mM MgCl2, pH 7.6, 20°C
[3] = molecular target: ISW1a (Saccharomyces cerevisiae, UniProt P38144); assay: nucleosome mobilization, native gel shift; conditions: 70N0 nucleosomes, 90 or 800 µM ATP, 5 mM MgCl2, pH 7.6, 20°C
Chain of ISW1a (P38144 whole entry): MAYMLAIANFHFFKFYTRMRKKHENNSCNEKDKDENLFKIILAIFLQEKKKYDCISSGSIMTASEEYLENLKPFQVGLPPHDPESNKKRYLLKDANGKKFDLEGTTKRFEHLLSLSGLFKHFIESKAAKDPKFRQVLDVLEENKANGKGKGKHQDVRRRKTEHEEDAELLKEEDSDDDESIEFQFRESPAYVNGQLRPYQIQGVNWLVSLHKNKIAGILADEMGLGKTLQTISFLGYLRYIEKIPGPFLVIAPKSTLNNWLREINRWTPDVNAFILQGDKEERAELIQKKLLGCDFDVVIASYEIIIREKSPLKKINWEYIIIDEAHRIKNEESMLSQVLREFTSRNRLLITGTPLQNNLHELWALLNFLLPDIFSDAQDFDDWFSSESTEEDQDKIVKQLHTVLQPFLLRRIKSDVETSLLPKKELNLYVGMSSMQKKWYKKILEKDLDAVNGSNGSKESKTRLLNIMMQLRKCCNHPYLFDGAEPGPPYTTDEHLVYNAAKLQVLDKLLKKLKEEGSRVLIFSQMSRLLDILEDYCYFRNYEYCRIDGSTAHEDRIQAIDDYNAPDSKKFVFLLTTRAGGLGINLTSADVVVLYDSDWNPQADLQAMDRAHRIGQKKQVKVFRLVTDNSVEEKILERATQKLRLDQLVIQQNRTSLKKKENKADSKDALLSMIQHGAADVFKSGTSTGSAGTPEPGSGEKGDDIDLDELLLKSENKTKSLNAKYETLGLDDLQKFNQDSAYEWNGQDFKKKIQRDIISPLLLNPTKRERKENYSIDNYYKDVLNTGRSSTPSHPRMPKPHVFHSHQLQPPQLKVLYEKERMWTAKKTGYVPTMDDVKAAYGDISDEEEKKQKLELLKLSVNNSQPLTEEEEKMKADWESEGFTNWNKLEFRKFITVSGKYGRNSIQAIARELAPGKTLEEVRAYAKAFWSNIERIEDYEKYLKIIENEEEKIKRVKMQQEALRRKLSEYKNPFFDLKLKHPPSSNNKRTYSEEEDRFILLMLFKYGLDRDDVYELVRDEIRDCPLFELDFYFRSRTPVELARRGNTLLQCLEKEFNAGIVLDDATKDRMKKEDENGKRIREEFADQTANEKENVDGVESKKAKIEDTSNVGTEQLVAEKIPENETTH
Chain of ISW1a (P43596 whole entry partner): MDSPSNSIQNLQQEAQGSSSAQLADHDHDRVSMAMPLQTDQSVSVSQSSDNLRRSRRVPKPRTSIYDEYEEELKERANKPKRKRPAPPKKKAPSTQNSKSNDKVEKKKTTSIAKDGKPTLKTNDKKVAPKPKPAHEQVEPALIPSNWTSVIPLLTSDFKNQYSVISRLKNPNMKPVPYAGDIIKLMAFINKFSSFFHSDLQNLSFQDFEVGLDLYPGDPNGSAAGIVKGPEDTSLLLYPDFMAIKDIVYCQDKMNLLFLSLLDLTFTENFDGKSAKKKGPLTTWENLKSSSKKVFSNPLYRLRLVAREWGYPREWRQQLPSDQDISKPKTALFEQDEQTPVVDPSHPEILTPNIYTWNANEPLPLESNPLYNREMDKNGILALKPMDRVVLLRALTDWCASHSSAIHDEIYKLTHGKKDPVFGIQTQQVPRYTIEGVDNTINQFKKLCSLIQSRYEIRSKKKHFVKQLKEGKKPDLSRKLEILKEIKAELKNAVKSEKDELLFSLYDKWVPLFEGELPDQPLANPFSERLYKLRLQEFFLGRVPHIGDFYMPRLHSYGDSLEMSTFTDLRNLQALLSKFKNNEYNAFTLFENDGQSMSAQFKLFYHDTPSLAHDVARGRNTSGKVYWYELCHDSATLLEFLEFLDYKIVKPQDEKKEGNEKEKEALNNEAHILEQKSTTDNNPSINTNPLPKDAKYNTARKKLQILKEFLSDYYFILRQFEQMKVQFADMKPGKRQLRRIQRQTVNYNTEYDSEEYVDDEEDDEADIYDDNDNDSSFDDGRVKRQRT

T1 sequence (Q08773 whole entry): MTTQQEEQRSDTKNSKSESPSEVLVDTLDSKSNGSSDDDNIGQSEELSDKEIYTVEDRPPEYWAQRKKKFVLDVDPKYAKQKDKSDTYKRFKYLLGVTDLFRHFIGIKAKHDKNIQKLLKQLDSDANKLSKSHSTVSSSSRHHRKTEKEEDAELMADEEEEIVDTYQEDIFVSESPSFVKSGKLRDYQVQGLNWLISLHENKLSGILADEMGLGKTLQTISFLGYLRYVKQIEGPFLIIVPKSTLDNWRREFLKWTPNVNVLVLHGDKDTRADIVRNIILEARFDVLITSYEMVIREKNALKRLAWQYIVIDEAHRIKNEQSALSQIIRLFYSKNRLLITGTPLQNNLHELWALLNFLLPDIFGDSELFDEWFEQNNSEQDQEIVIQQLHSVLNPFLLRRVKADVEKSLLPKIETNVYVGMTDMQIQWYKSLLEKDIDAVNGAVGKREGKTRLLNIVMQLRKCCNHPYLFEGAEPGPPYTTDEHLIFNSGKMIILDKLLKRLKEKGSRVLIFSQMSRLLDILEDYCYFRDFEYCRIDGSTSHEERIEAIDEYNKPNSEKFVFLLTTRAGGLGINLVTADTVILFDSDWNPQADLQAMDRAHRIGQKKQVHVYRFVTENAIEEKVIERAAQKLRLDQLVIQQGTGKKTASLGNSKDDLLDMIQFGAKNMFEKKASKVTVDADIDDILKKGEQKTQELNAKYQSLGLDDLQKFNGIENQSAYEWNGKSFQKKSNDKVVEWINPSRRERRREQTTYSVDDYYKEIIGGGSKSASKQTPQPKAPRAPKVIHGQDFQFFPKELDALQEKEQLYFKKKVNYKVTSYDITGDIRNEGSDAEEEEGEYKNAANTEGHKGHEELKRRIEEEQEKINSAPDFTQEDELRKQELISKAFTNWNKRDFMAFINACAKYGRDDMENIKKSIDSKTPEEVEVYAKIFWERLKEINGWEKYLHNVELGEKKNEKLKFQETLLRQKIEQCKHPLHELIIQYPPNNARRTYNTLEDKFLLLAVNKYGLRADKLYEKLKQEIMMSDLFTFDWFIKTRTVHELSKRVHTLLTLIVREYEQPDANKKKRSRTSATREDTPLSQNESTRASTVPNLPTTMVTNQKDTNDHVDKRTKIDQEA
T1 sequence (P53125 whole entry partner): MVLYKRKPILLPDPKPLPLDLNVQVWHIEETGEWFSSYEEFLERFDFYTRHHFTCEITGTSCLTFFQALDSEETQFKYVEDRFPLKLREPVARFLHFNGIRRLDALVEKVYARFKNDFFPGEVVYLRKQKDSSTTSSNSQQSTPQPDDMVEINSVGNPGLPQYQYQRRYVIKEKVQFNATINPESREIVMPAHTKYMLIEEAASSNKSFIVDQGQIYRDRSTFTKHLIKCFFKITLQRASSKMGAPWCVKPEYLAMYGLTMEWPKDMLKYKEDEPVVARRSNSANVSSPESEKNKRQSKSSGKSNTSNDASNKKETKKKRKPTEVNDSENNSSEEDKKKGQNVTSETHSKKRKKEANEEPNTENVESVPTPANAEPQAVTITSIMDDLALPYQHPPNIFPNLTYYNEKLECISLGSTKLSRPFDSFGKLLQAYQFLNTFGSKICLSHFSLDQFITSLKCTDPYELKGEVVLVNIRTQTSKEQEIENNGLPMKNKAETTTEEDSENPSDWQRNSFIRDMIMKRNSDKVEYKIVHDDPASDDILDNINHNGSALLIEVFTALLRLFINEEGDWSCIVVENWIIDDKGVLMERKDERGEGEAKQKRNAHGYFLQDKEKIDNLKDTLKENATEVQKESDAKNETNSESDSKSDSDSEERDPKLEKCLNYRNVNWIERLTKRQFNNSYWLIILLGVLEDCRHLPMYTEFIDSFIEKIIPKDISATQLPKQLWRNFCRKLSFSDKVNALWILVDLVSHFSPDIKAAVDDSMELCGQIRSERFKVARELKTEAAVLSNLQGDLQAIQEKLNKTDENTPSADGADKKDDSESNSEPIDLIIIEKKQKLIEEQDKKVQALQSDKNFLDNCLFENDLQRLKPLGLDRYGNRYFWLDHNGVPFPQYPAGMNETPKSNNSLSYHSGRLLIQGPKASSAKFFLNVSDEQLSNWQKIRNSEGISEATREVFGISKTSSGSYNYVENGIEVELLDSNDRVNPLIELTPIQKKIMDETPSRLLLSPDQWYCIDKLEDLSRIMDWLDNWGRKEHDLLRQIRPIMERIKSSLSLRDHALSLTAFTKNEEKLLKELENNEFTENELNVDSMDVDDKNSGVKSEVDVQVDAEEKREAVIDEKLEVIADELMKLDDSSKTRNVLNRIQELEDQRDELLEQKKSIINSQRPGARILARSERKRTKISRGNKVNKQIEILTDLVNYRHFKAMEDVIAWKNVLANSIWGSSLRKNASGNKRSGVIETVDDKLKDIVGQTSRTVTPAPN
T1 sequence (Q04603 whole entry partner): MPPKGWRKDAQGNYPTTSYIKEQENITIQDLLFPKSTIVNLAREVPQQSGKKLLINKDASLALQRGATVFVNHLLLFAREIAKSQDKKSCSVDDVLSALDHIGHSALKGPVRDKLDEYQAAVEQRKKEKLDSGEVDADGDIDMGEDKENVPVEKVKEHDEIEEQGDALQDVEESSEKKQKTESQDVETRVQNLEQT
T1 sequence (P40366 whole entry partner): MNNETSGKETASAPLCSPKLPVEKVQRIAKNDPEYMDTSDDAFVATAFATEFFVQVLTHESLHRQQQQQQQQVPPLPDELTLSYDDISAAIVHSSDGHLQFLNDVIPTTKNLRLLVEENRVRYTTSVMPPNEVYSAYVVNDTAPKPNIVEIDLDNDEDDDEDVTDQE

Structure (SMILES)	competitive inhibitor assay against ATP [1]	nucleosome mobilization, native gel shift [2]	nucleosome mobilization, native gel shift [3]
Nc1ncnc2c1ncn2[C@@H]1O[C@H](COP(=O)(O)OP(=O)(O)O)[C@@H](O)[C@H]1O [ADP]	ADP and γ-S-ATP were shown to be bound at the active site of ISW2		
Nc1ncnc2c1ncn2[C@@H]1O[C@H](COP(=O)(O)OP(=O)(O)OP(=O)(O)O)[C@@H](O)[C@H]1O [ATP]		Template commitment of ISW2 required initiation of the remodeling process rather than just ISW2 binding	ATP was found to be required for template commitment by ISW1a
